# Results from patent US20210405025A1, “IDENTIFYING COMPOUNDS FOR TREATING CANCER AND USE THEREOF” (THE UAB RESEARCH FOUNDATION, priority 2018, published 2021).
# Structures can show the parent of a compound that is named as a salt.
# System: relapsed AML cells
# Assay: Drug sensitivity assay, 1,536-well, 3-day culture with individual approved drugs at 10 μM, viability by alamarBlue
# Type: cell-based, human
# Settings: not given
# Outline: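 FACS-sorted viable myeloid blasts from thawed AML samples, 4,000-4,500 cells per 5 μL well, cultured in IMDM with 15% BIT, SCF, FLT3L, IL-3, G-CSF. Drugs added per well; after three days percentage of live cells measured to gauge killing.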
row,Compound,#Cases >70% cell death
1,COC(=O)C1=C(C)NC(C)=C(C(=O)OCCCN2CCC(c3ccccc3)(c3ccccc3)CC2)[C@@H]1c1cccc([N+](=O)[O-])c1 [DEXNIGULDIPINE],8
2,CCCCCCCCCCCCCCCC[n+]1ccccc1,18

# Same assay, conditions: number of relapsed AML cases out of 18 tested with >70% cell death; 10 μM, 3-day culture
row,Compound,#Cases >70% cell death
1,O=c1[nH]c(=O)n([C@H]2C[C@H](O)[C@@H](CO)O2)cc1C(F)(F)F [TRIFLURIDINE],6
2,CCCCN(CCCC)CCCOC(=O)c1ccc(N)cc1 [BUTACAINE],1
3,COc1cc([C@@H]2c3cc4c(cc3[C@H](O)[C@H]3COC(=O)[C@H]23)OCO4)cc(OC)c1OC [PODOFILOX],13
4,C=CC(=O)N1CCC[C@@H](n2nc(-c3ccc(Oc4ccccc4)cc3)c3c(N)ncnc32)C1 [IBRUTINIB],2
5,CC(C)[C@H](N)C(=O)OCCOCn1cnc2c(=O)[nH]c(N)nc21 [VALACICLOVIR],1
6,O=C(NC1CCNCC1)c1[nH]ncc1NC(=O)c1c(Cl)cccc1Cl [AT-7519],18
7,COc1c(C)c2c(c(O)c1C/C=C(\C)CCC(=O)O)C(=O)OC2 [MYCOPHENOLIC ACID],5
8,VINFLUNINE TARTRATE,14
9,C[C@H]1C[C@@H]2[C@H]([C@@H](O)C[C@@]3(C)[C@H]2CC[C@]3(O)C(=O)CO)[C@@]2(C)C=CC(=O)C=C12 [METHYLPREDNISOLONE],1
10,FC(F)(F)c1ccc(/C=C/c2nc(COc3ccc(CCCCn4ccnn4)cc3)co2)cc1 [MUBRITINIB],1
11,CCc1nn(CCCN2CCN(c3cccc(Cl)c3)CC2)c(=O)n1CCOc1ccccc1 [NEFAZODONE],1
12,CC[C@@H]1/C=C(\C)C[C@H](C)C[C@H](OC)[C@H]2O[C@@](O)(C(=O)C(=O)N3CCCC[C@H]3C(=O)O[C@H](/C(C)=C/[C@@H]3CC[C@H](Cl)[C@H](OC)C3)[C@H](C)[C@@H](O)CC1=O)[C@H](C)C[C@@H]2OC [PIMECROLIMUS],2
13,Clc1ccc(C(Cn2ccnc2)OCc2ccsc2Cl)c(Cl)c1 (stereo not shown) [TIOCONAZOLE],1
14,C[C@@H](Oc1cc(-n2cnc3ccc(CN4CCN(C)CC4)cc32)sc1C(N)=O)c1ccccc1C(F)(F)F [GSK 461364],9
15,CCCCOc1cc(C(=O)OCCN(CC)CC)ccc1N [BENOXINATE],5
16,Clc1ccc(CCC(Cn2ccnc2)Sc2c(Cl)cccc2Cl)cc1 (stereo not shown) [BUTOCONAZOLE],1
17,CC(C)NCC(O)COc1ccc(CC(N)=O)cc1 (stereo not shown) [ATENOLOL],1
18,CC[C@H]1OC(=O)C[C@@H](O)[C@H](C)[C@@H](O[C@@H]2O[C@H](C)[C@@H](O)[C@H](N(C)C)[C@H]2O)[C@@H](CCN2C[C@H](C)C[C@H](C)C2)C[C@@H](C)C(=O)/C=C/C(C)=C/[C@@H]1CO[C@@H]1O[C@H](C)[C@@H](O)[C@@H](OC)[C@H]1OC [TILMICOSIN],1
19,AMONAFIDE MALATE,8
20,Nc1ccn([C@@H]2O[C@H](CO)[C@@H](O)[C@@H]2O)c(=O)n1 [CYTARABINE],16
21,COc1ccc(S(=O)(=O)N(C(C)=O)c2ccccc2/C=C/c2cc[n+]([O-])cc2)cc1 [HMN-214],5
22,c1ccc(-c2ccc(C(c3ccccc3)n3ccnc3)cc2)cc1 (stereo not shown) [BIFONAZOLE],1
23,CCCCCCCCCCCCCCCC[N+](C)(C)CCN(Cc1ccc(OC)cc1)c1ncccn1 [THONZONIUM BROMIDE],18
24,Fc1ccc(C(c2ccc(F)cc2)N2CCN(C/C=C/c3ccccc3)CC2)cc1 [FLUNARIZINE],3

row,Compound,#Cases >70% cell death
1,N[C@@H]1CONC1=O [D-CYCLOSERINE],1
2,C[C@@H]1CCCN1CCc1cc2cc(-c3ccc(C#N)cc3)ccc2o1 [ABT-239],1
3,C[C@]12C=CC(=O)C=C1CC[C@@H]1[C@@H]2[C@@H](O)C[C@@]2(C)[C@H]1CC[C@]2(O)C(=O)CO [PREDNISOLONE],1
4,Clc1ccc(COC(Cn2ccnc2)c2ccc(Cl)cc2Cl)c(Cl)c1 (stereo not shown) [MICONAZOLE],1
5,CN(C[C@@H]1COCCO1)S(=O)(=O)Nc1ccc2ccc3ncc(-c4cnn(C)c4)cc3c(=O)c2c1 [MK-2461],2
6,IFENPRODIL TARTRATE,4
7,COc1ccc(F)c(F)c1C(=O)c1cnc(NC2CCN(S(C)(=O)=O)CC2)nc1N [R-547],18
8,CCC[C@H](Nc1nc(-c2ccc(NC(=O)NCC)c(OC)c2)ncc1C)c1cccnc1 [LEXIBULIN],13
9,EXATECAN MESYLATE,12
10,CNC(=O)c1cc(Oc2ccc(NC(=O)Nc3ccc(Cl)c(C(F)(F)F)c3)cc2)ccn1 [SORAFENIB],9
11,CC(C)OC(=O)C(C)(C)Oc1ccc(C(=O)c2ccc(Cl)cc2)cc1 [FENOFIBRATE],3
12,O=C(/C=C/c1cccc(S(=O)(=O)Nc2ccccc2)c1)NO [BELINOSTAT],1
13,Cc1cc(C2CCCCC2)n(O)c(=O)c1 [CICLOPIROX],14
14,O=c1[nH]c2ccccc2n1C1CCN(CCCC(c2ccc(F)cc2)c2ccc(F)cc2)CC1 [PIMOZIDE],1
15,CCN(CC)CCOc1ccc2c(c1)C(=O)c1cc(OCCN(CC)CC)ccc1-2 [TILORONE],10
16,COc1cc2ncnc(Nc3ccc(F)c(Cl)c3)c2cc1OCCCN1CCOCC1 [GEFITINIB],2
17,Cn1cncc1[C@@](N)(c1ccc(Cl)cc1)c1ccc2c(c1)c(-c1cccc(Cl)c1)cc(=O)n2C [TIPIFARNIB],7
18,C[C@@H]1O[C@@H](O[C@H]2C[C@@H](O)[C@]3(CO)[C@H]4[C@H](O)C[C@]5(C)[C@@H](C6=CC(=O)OC6)CC[C@]5(O)[C@@H]4CC[C@]3(O)C2)[C@H](O)[C@H](O)[C@H]1O [OUABAIN],18
19,CCCOc1ccc(C(=O)OCCN(CC)CC)cc1N [PROPARACAINE],1
20,CC(=O)O[C@H]1C(=O)[C@@]2(C)[C@H]([C@H](OC(=O)c3ccccc3)[C@]3(O)C[C@H](OC(=O)[C@H](O)[C@@H](NC(=O)c4ccccc4)c4ccccc4)C(C)=C1C3(C)C)[C@]1(OC(C)=O)CO[C@@H]1C[C@@H]2O [PACLITAXEL],5
21,COc1cc2c(c(OC)c1OC)-c1ccc(OC)c(=O)cc1[C@@H](NC(C)=O)CC2 [COLCHICINE],13
22,COc1c(C)cnc(Cn2cnc3c(Cl)nc(N)nc32)c1C [CNF-2024],18
23,CCCC(=O)O[C@]1(C(=O)COC(C)=O)CC[C@H]2[C@@H]3C[C@H](F)C4=CC(=O)C=C[C@]4(C)[C@@]3(F)[C@@H](O)C[C@@]21C [DIFLUPREDNATE],1
24,O=C1Cc2cc(CCN3CCN(c4nsc5ccccc45)CC3)c(Cl)cc2N1 [ZIPRASIDONE],3

row,Compound,#Cases >70% cell death
1,N[C@@H](Cc1ccc(N(CCCl)CCCl)cc1)C(=O)O,4
2,COc1cc(CNC(=O)CCCC/C=C/C(C)C)ccc1O [CAPSAICIN],1
3,Cc1nc2ccccc2n1Cc1ccc(Cl)cc1 [CHLORMIDAZOLE],1
4,ABAMECTIN,18
5,Cc1cc(C(C)(C)CC(C)(C)C)ccc1OCCOCC[N+](C)(C)Cc1ccccc1.[Cl-] [METHYLBENZETHONIUM CHLORIDE],16
6,Clc1ccc(CSC(Cn2ccnc2)c2ccc(Cl)cc2Cl)cc1 (stereo not shown) [SULCONAZOLE NITRATE],5
7,Nc1nc(NC2CC2)c2ncn([C@H]3C=C[C@@H](CO)C3)c2n1 [ABACAVIR SULFATE],1
8,CN1CCN(c2ncc(-c3cc(Cl)cc(Cl)c3Cl)c(N)n2)CC1 [SIPATRIGINE],1
9,CC1(C)O[C@@H]2C[C@H]3[C@@H]4C[C@H](F)C5=CC(=O)CC[C@]5(C)[C@H]4[C@@H](O)C[C@]3(C)[C@]2(C(=O)CO)O1 [FLURANDRENOLIDE],18
10,O=C(CCCN1CC=C(n2c(=O)[nH]c3ccccc32)CC1)c1ccc(F)cc1 [DROPERIDOL],2
11,GRAMICIDIN [GRAMICIDIN (GRAMICIDIN A SHOWN)],9
12,O=C(NCC1CCCCN1)c1cc(OCC(F)(F)F)ccc1OCC(F)(F)F (stereo not shown),1
13,C[C@H]1O[C@@H](O[C@H]2[C@@H](O)C[C@H](O[C@H]3[C@@H](O)C[C@H](O[C@H]4CC[C@@]5(C)[C@H](CC[C@@H]6[C@@H]5C[C@@H](O)[C@]5(C)[C@@H](C7=CC(=O)OC7)CC[C@]65O)C4)O[C@@H]3C)O[C@@H]2C)C[C@H](O)[C@@H]1O [DIGOXIN],18
14,Cc1c(-c2ccc(O)cc2)n(Cc2ccc(OCCN3CCCCCC3)cc2)c2ccc(O)cc12 [BAZEDOXIFENE HCL],8
15,C[C@@]1(C(=O)Nc2ccc(F)nc2)CCCN1c1nc(Nc2cc(C3CC3)n[nH]2)c2cccn2n1 [BMS-754807],1
16,C[n+]1cc2c3c(ccc2c2ccc4cc5c(cc4c21)OCO5)OCO3 [SANGUINARIUM CHLORIDE],18
17,CCOC(=O)C1=C[C@]2(CC)CCCN3CCc4c(n1c1ccccc41)[C@@H]32 [VINPOCETINE],1
18,c1ccc2c(CCNc3ccc(Nc4ccncc4)cc3)c[nH]c2c1,12
19,COc1cc([C@@H]2c3cc4c(cc3[C@@H](O[C@@H]3O[C@@H]5CO[C@@H](C)O[C@H]5[C@H](O)[C@H]3O)[C@H]3COC(=O)[C@H]23)OCO4)cc(OC)c1O [ETOPOSIDE],5
20,CC[C@@]1(O)C(=O)OCc2c1cc1n(c2=O)Cc2cc3c(CN(C)C)c(O)ccc3nc2-1 [TOPOTECAN],13
21,Cc1ncc2c(c1O)COC2c1ccc(Cl)cc1 (stereo not shown) [CICLETANINE],4
22,Cc1cc(N)c2ccccc2[n+]1CCCCCCCCCC[n+]1c(C)cc(N)c2ccccc21 [DEQUALINIUM CHLORIDE],17
23,OCCN1CCN(CCCN2c3ccccc3Sc3ccc(C(F)(F)F)cc32)CC1 [FLUPHENAZINE],3
